Patent publication US20140256664A1, “COMPOSITIONS AND METHODS FOR A MYCOBACTERIUM TUBERCULOSIS DRUG SUSCEPTIBILITY TEST” (priority 2011, published 2014)
Where “and” joins values, the source holds several entries; their conditions need not be identical. Identical values can stand only once. Counter-ions that a name gives are not always drawn. Like-named read-outs stand apart in the source and are kept apart here.

What was measured:
Assay type in all cases: cell-based, Mycobacterium tuberculosis
[1] = tested on: 33 isolates of M. tuberculosis
M. tuberculosis isolates [2] = tested on: M. tuberculosis isolates
M. tuberculosis isolates [3] = tested on: M. tuberculosis isolates; remark: listed apart in the source
[4] = tested on: clinical MDR strain (INH, RIF, EMB, STR resistant)

Molecule	D29 phage assay Resistant (n isolates) [1]	D29 phage assay susceptible (n isolates) [1]	ΔCt of D29 phage assay resistant isolates [1]	Agar proportion Resistant (n isolates) (M. tuberculosis isolates [2])	Agar proportion susceptible (n isolates) (M. tuberculosis isolates [2])	number of phage / real-time PCR Ct value after drug pre-treatment [4]	other results
NCC[C@H](O)C(=O)N[C@@H]1C[C@H](N)[C@@H](O[C@H]2O[C@H](CN)[C@@H](O)[C@H](O)[C@H]2O)[C@H](O)[C@H]1O[C@H]1O[C@H](CO)[C@@H](O)[C@H](N)[C@H]1O [Amikacin, amikacin]	1(−2.9) and 1(2.4)	0	1(−2.9) and 1(2.4)	1(16) and 1(8)	0		D29 phage assay Resistant (n isolates) ([1]; listed as AMK): 0; Agar proportion Resistant (n isolates) (M. tuberculosis isolates [2]; listed as AMK): 0; MIC of agar proportion resistant isolates (M. tuberculosis isolates [3]): 1(16) μg/ml and 1(8) μg/ml
CC[C@@H](CO)NCCN[C@@H](CC)CO [Ethambutol, ethambutol hydrochloride]							D29 phage assay Resistant (n isolates) ([1]; listed as EMB, hydrochloride): 0; Agar proportion Resistant (n isolates) (M. tuberculosis isolates [2]; listed as EMB, hydrochloride): 0
NNC(=O)c1ccncc1 [Isoniazid, isoniazid]		0			0	the phage number increased/Ct value decreased	D29 phage assay Resistant (n isolates) ([1]; listed as INH): 1 and 2
CO[C@H]1/C=C/O[C@@]2(C)Oc3c(C)c(O)c4c(O)c(c(/C=N/N5CCN(C)CC5)c(O)c4c3C2=O)NC(=O)/C(C)=C\C=C\[C@H](C)[C@H](O)[C@@H](C)[C@@H](O)[C@@H](C)[C@H](OC(C)=O)[C@@H]1C [Rifampin, rifampin]		0			0	the phage number increased/Ct value decreased	ΔCtRIF (Ct control−Ct drug) ([4]; […], drug, Tb inoculum and phage added at once, 24 h): −1
capreomycin sulfate	1(−5.4) and 1(−3.3)	0	1(−5.4) and 1(−3.3)	1(ND)	0		D29 phage assay Resistant (n isolates) ([1]; listed as CAP): 1; ΔCt of D29 phage assay resistant isolates ([1]; listed as CAP): −5.4; Agar proportion Resistant (n isolates) (M. tuberculosis isolates [2]; listed as CAP): 0
